Legend:
[1] = test system: Tcy2 (DNA, G4) GGTTGGTTGGTTGGTTTT; test: FAM fluorescence quenching; conditions: 10 mM Tris-acetate pH 8.0, room temperature, 25 nM DNA
[2] = test system: Tcy2 (DNA, G4) GGTTGGTTGGTTGGTTTT; test: circular dichroism; conditions: 10 mM MOPS pH 7.0, room temperature, 5 min; 1 μM DNA, 1 ppm cyromazine
[3] = test system: Random DNA (DNA, single strand) ATCGACATGTAGCCGATGGC; test: FAM fluorescence quenching; conditions: 10 mM Tris-acetate pH 8.0, room temperature; 25 nM DNA; highest tested 100 ppb
[4] = tested at 50 ppb, no fluorescence change

SMILES | binding [1, 4] | other results
CN(C)[C@@H]1C(=O)C(C(N)=O)=C(O)[C@@]2(O)C(=O)C3=C(O)c4c(O)cccc4[C@@](C)(O)[C@H]3[C@H](O)[C@@H]12 | no | –
Cc1ccc(N=CN(C)C=Nc2ccc(C)cc2C)c(C)c1 | no | –
O=C(N[C@H](CO)[C@H](O)c1ccc([N+](=O)[O-])cc1)C(Cl)Cl | no | –
CS(=O)(=O)c1ccc([C@@H](O)[C@@H](CO)NC(=O)C(Cl)Cl)cc1 | no | –
Nc1nc(N)nc(NC2CC2)n1 | – | binding [2]: yes; binding ([1]; 2 min, static quenching): yes; binding [3]: no
Cc1nc(C)c(Cl)c(O)c1Cl | no | –
c1ccc([C@H]2CN3CCSC3=N2)cc1 | no | –
